According to patent US20100151486A1, “OSTEOPONTIN FUNCTIONAL EPITOPES, MONOCLONAL ANTIBODIES AGAINST THE EPITOPES AND USES THEREOF” (SHANGHAI NATIONAL ENGINEERING RESEARCH CENTER OF A, priority 2007, published 2010):
One block for each molecule: values may come before it.

What was measured:
[1] = test system: human vascular endothelial cell (HUVEC); assay: HUVEC proliferation by 3H-TdR incorporation; assay type: cell-based; conditions: M200+1% BSA+OPN; 24 hours
Procedure: HUVEC cell proliferation was measured by the ^3H-TdR incorporation method to determine the protective effect of OPN on cell survival and the inhibitory effect of the anti-OPN antibodies on the OPN protection. Each well of a 96-well plate was inoculated with 2×10^4 HUVECs and cultured in a complete medium for 24 hours. The cells were then treated as following for 24 hours: […]
iv. M200+1% BSA+OPN+murine anti-OPN antibody 1A12 v. M200+1% , BSA+OPN+human-murine chimeric anti-OPN antibody c1A12 vi. M200+1% BSA+OPN+humanized anti-OPN antibody h1A12 vii. M200+1% BSA+OPN+irrelevant antibody
24 hours later, 1 uCi/well ^3H-thymidine was added and, after being incubated at 37° C. for 6 hours, washed once with PBS. The plate was treated with ice-cold 10% trichloroacetic acid/H2O at 4° C. for 10 min, and then washed for two times with, ice-cold ddH2O. Cytolysis was conducted by adding into each well 0.1 ml of 0.5 N NaOH, 0.5% SDS at room temperature for 10 min. After adding 0.2 ml of 0.5 N HCl and mixing, the cells were collected using a multiple cell collector.

[2] = test system: chicken embryo chorioallantoic membrane (CAM); assay: Chicken embryo chorioallantoic membrane (CAM) angiogenesis assay; assay type: in vivo; conditions: human OPN 250 ng; P<0.01
Procedure: The Leghorn chicken embryos were purchased from the farm with a fertilization rate of >90%. The 8-day old chicken embryos were selected. After sterilization, a small hole was drilled in the center of the top air chamber of the embryo with a lancet, the surrounding shell with the inner membrane was removed with caution to create an opening of 1 cm×1 cm. Then the following analytes/gelatin sponge were added to the CAM surface: i) PBS; ii) HOPN; iii) human OPN (250 ng); iv) human OPN (250 ng)+the irrelevant antibody as control (1 μg); v) human OPN (250 ng)+the murine anti-OPN antibody 1A12 (1 μg); vi) human OPN (250 ng)+the murine-human chimeric anti-OPN antibody c1A12 (1 μg); vii) human OPN (250 ng)+the humanized anti-OPN antibody h1A1.2 (1 μg).
The analytes/gelatin sponge were added to the CAM surface, which was far away from the already-formed dense vascular network. […] The number of vessels within an area edging 2 mm from the edges of the carrier slide was counted under a dissecting microscope to study the angiogenesis using the “vascular index” (Ribatti, D., B. Nico, A. Vacca et al., The gelatin sponge-chorioallantoic membrane assay. Nat Protoc, 2006, 1 (1): 85-91). The number of vessel was counted at the same magnification under the dissecting microscope. The result in each sample group was expressed as “mean±standard deviation (x±S)”. […]

[3] = target: T1, human osteopontin (human OPN protein) (human, UniProt P10451 17-314, limits assumed); assay: Western blot on purified recombinant OPN
T1 construct: The isoform follows from the 963 bp PCR fragment and is not otherwise stated; also called hOPN

[4] = target: T1, human osteopontin (human OPN protein); assay: ELISA, plate coated with OPN 2 ug/ml, COS-1 supernatant, HRP-rabbit anti-human IgG
Procedure: An ELISA plate was coated with 2 ug/ml OPN. The binding activity of the humanized antibody obtained from the transfection was detected by ELISA. […] The amino acid sequences of the h1A12HBb's and the h1A12Lb's variable regions were shown in FIG. 4, SEQ ID NO: 18 and SEQ ID NO: 19 show the nucleotide sequence and the amino acid sequence of h1A12Hb's variable region respectively. SEQ ID NO: 20 and SEQ ID NO: 21 show the nucleotide sequence and the amino acid sequence of h1A12Lb's variable region respectively. The genes of the humanized antibody's VH and VL (h1A12VHb/h1A12VLb) were synthesized respectively. […] Then, expression vectors of the light and the heavy chain were used to co-transfect the COS-1 cells. The antibody's antigen-binding activity was determined by ELISA. Specifically, an ELISA plate was coated with OPN protein (2 ug/ml) coated at 4° C. overnight, and was blocked with 2% BSA-PBS for 2 h at 37° C. […] HRP-rabbit anti-human IgG was added into the plate for binding reaction (incubated at 37° C. for 1 h).

T1 sequence (P10451 17-314 limits assumed): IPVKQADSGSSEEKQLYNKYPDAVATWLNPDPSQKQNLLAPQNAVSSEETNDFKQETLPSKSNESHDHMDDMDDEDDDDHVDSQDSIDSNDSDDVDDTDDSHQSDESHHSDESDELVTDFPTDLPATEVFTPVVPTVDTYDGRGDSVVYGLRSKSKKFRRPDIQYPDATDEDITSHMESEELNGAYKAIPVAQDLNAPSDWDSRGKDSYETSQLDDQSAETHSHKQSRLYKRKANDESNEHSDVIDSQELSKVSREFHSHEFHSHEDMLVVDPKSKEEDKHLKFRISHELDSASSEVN

Molecule: OPN: human osteopontin protein expressed in Pichia yeast and purified (Example 3)
3H-TdR incorporation relative to the 1% BSA treatment group [1]: 3.08±0.64 times
angiogenesis in the chicken embryo's CAM in comparison with PBS [2]: significantly enhance

binding result [3]: binds
B1: murine anti-human OPN monoclonal antibody 1A12 (antibody, V domains shown)
VH: QVQLEQSGPELVKPGASVKMSCKSSGYTFTTYVMHWVKQKPGQGLEWIGYINPYNDGSKYNEKFKGKATLTSDKSSNTAYMELSSLTSEDSAVYYCASHYGGSPAYWGQGTLVTVSA
VL: DILMTQTPLSLPVSLGDQASISCRSSQSLVHSNGNTYLHWYLQKPGQSPKLLIYKVSNRFSGVPDRFSGSGSGTDFTLKISRVEAEDLGVYFCSQSTHVPWTFGGGTKLEIKR
notes: Hybridoma antibody purified from mouse ascites on protein A. Mouse constant regions; also called mouse anti-hOPN mAb 1A12; anti-OPN mAb 1A12

binding result [4]: binds
B2: human-mouse chimeric anti-hOPN antibody c1A12 (antibody, human IgG1, kappa, V domains shown)
VH: QVQLEQSGPELVKPGASVKMSCKSSGYTFTTYVMHWVKQKPGQGLEWIGYINPYNDGSKYNEKFKGKATLTSDKSSNTAYMELSSLTSEDSAVYYCASHYGGSPAYWGQGTLVTVSA
VL: DILMTQTPLSLPVSLGDQASISCRSSQSLVHSNGNTYLHWYLQKPGQSPKLLIYKVSNRFSGVPDRFSGSGSGTDFTLKISRVEAEDLGVYFCSQSTHVPWTFGGGTKLEIKR
notes: Tested as COS-1 supernatant in the ELISA and as CHO-purified antibody in the cell assays; also called chimeric antibody c1A12
